# From patent publication US9676789B2, “Aminated derivative of homoharringtonine, preparation method therefor, and application thereof” (HANGZHOU BENSHENG PHARMACEUTICAL CO., LTD., priority 2011, dated 2017)
# Where two headings read alike, the source gives them in different places.
# How the values were obtained:
# [1] = tested on: H9 (acute lymphoblastic leukemia, ALL); assay: MTT leukemia cell growth inhibition, 72 h; assay type: cell-based, human; details: H9, 72 h
# In short: (§1)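 After 72 h of compound exposure (37°C, 5% CO2), viability was read by MTT and expressed relative to untreated cells at 100%. Each well held 6000 leukemia cells in 1640 medium containing 10% fetal bovine serum, with homoharringtonine derivatives added at a range of concentrations.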
# [2] = tested on: Jurkat (acute lymphoblastic leukemia, ALL); assay: MTT leukemia cell growth inhibition, 72 h; assay type: cell-based, human
# In short: as §1
# [3] = tested on: K562/adr (drug-resistant, chronic myeloid leukemia, CML); assay: MTT leukemia cell growth inhibition, 72 h; assay type: cell-based, human
# In short: as §1
# [4] = tested on: Kasumi-1 (acute myeloid leukemia M2 type, AML-M2); assay: MTT leukemia cell growth inhibition, 72 h; assay type: cell-based, human; details: Kasumi-1, 72 h
# In short: as §1
# [5] = tested on: NB4 (acute promyelocytic leukemia, AML); assay: MTT leukemia cell growth inhibition, 72 h; assay type: cell-based, human; details: NB4, 72 h
# In short: as §1
# [6] = tested on: RPMI8226 (multiple myeloma); assay: MTT multiple myeloma cell growth inhibition, 72 h; assay type: cell-based, human; details: for IC50 / IC90: RPMI8226, 72 h
# In short: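 RPMI8226 cells at 6000 per well in 1640 medium with 10% fetal bovine serum, exposed to homoharringtonine derivatives at various concentrations. Incubation 72 h at 37° C, 5% CO2; viable cells read by MTT.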
# [7] = tested on: A549 (human lung cancer); assay: MTT solid tumor cell growth inhibition, 72 h; assay type: cell-based; details: A549, 72 h
# In short: (§2)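 MTT read-out after 72 h compound treatment at 37° C, 5% CO2, of 4000 cells/well that had first been cultured 24 h in DMEM high glucose plus 10% FBS. Cell viability (%) refers to untreated control as 100%.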
# [8] = tested on: Becap37 (human breast cancer cell); assay: MTT solid tumor cell growth inhibition, 72 h; assay type: cell-based; details: Becap37, 72 h
# In short: as §2
# [9] = tested on: Hela (human cervical cancer cell); assay: MTT solid tumor cell growth inhibition, 72 h; assay type: cell-based
# In short: as §2
# [10] = tested on: Hep-2 (human hepatocellular carcinoma); assay: MTT solid tumor cell growth inhibition, 72 h; assay type: cell-based; details: Hep2, 72 h
# In short: as §2
# [11] = tested on: Huh7 (human liver cancer cell); assay: MTT solid tumor cell growth inhibition, 72 h; assay type: cell-based; details: Huh7, 72 h
# In short: as §2
# [12] = tested on: MGC 803 (human gastric cancer cell); assay: MTT solid tumor cell growth inhibition, 72 h; assay type: cell-based; details: MGC 803, 72 h
# In short: as §2
# [13] = tested on: RKO (human colon adenocarcinoma cell); assay: MTT solid tumor cell growth inhibition, 72 h; assay type: cell-based
# In short: as §2
# [14] = tested on: CNE (nasopharyngeal carcinoma cell); assay: MTT solid tumor cell growth inhibition, 72 h; assay type: cell-based, human
# In short: as §2
# [15] = tested on: CaES-17 (esophageal cancer cell); assay: MTT solid tumor cell growth inhibition, 72 h; assay type: cell-based, human; details: CaES-17, 72 h
# In short: as §2
# [16] = tested on: MG63 (osteosarcoma); assay: MTT solid tumor cell growth inhibition, 72 h; assay type: cell-based, human; details: MG 63, 72 h
# In short: as §2
# [17] = tested on: PANC-1 (pancreatic cancer); assay: MTT solid tumor cell growth inhibition, 72 h; assay type: cell-based, human; details: PANC-1, 72 h
# In short: as §2
# [18] = tested on: PC-3 (prostate cancer); assay: MTT solid tumor cell growth inhibition, 72 h; assay type: cell-based, human; details: PC-3, 72 h
# In short: as §2
# [19] = tested on: SK-OV-3 (ovarian cancer cell); assay: MTT solid tumor cell growth inhibition, 72 h; assay type: cell-based, human; details: SK-OV-3, 72 h
# In short: as §2
# [20] = tested on: U87 MG (malignant glioma cell); assay: MTT solid tumor cell growth inhibition, 72 h; assay type: cell-based, human
# In short: as §2
# [21] = tested on: K562/adr, NB4, Kasumi-1 and H9; assay: Anti-leukemia activity, summary over cell lines; assay type: cell-based, human; details: result in words, summary of Table 1
# From the text: Leukemia cell lines: K562/adr (drug-resistant, chronic myeloid leukemia, CML), NB4 (acute promyelocytic leukemia, AML), Kasumi-1 (acute myeloid leukemia M2 type, AML-M2), Jurkat (acute lymphoblastic leukemia, ALL), all of which are donated by Cancer Research Institute of Zhejiang University, China; and H9 (acute lymphoblastic leukemia, ALL), which is purchased from China Center for Type Culture Collection.
# Obtaining 6000 well-growing leukemia cells and inoculating them into wells of a 96-well cell culture plate. The culture medium is the 1640 cell culture medium containing 10% fetal bovine serum. After adding the homoharringtonine derivatives of different concentrations and mixing uniformly, placing the plate in a carbon dioxide cell incubator (5% CO2) at 37° C. and incubating for 72 hours. Then the viable cell concentration is determined by the MTT method. In this experiment, the cell viability in control group (not treated with any compound) is set as 100%.
# [22] = tested on: A549, PANC-1, Becap37, MG63, Huh7, RKO, Hela, CaES-17, CNE, Hep-2, PC-3 and SK-OV-3; assay: Anti-human solid tumor effect, summary over cell lines; assay type: cell-based; details: result in words, summary of Table 2
# Experimental: Human solid tumor cell lines: Hep-2 ([…]), A549 (human lung cancer), CaES-17 (esophageal cancer cell), PC-3 (prostate cancer), CNE (nasopharyngeal carcinoma cell), and SK-OV-3 (ovarian cancer cell), all of which are purchased from China Center For Type Culture Collection; RKO (human colon adenocarcinoma cell), MGC 803 (human gastric cancer cell), MG63 (osteosarcoma) and U87 MG (malignant glioma cell), all of which are purchased from Fuxiang Bio-tech Co. Ltd., Shanghai, China; PANC-1 (pancreatic cancer), Huh7 (human liver cancer cell), Becap37 (human breast cancer cell), and Hela (human cervical cancer cell), all of which are donated by Cancer Research Institute of Zhejiang University, China.
# Obtaining 4000 well-growing human solid tumor cells and inoculating them into wells of a 96-well cell culture plate. The culture medium is DMEM High Glucose cell culture medium containing 10% fetal bovine serum. The plate is placed in a carbon dioxide cell incubator (5% CO2) at 37° C. and incubating for 24 hours. After adding the homoharringtonine derivatives of different concentration and mixing uniformly, the plate is placed in a carbon dioxide cell incubator (5% CO2) at 37° C. and incubating for 72 hours. Then the viable cell concentration is determined by the MTT method and the cell viability (%) after drug treatment is calculated. In this experiment, the cell viability of control group (not treated with any compound) is set as 100%.
compound,measurement,setting,value
"O-3-[(2R)-2,6-dihydroxy-2-(2′-pyrrolyl-2′-oxoethyl)-6-methylheptanoyl]cephalotaxine [BS-HH-012]",IC50,[1],0.27 µg/mL
same,IC90,[1],3.49 µg/mL
same,IC50,[2],0.058 µg/mL
same,IC90,[2],16 µg/mL
same,IC50,[3]; K562/adr,0.65 µg/mL
same,IC90,[3]; K562/adr,9.87 µg/mL
same,IC50,[4],0.038 µg/mL
same,IC90,[4],0.14 µg/mL
same,IC50,[5],0.08 µg/mL
same,IC90,[5],0.23 µg/mL
same,IC50,[6],0.057 µg/mL
same,IC90,[6],0.36 µg/mL
same,anti-RPMI8226 (multiple myeloma) effect,"[6]; result in words, summary of Table 2",strong
same,IC50,[7],0.45 µg/mL
same,IC90,[7],>16 µg/mL
same,IC50,[8],0.26 µg/mL
same,IC90,[8],16 µg/mL
same,IC50,[9]; Hela,0.35 µg/mL
same,IC90,[9]; Hela,>16 µg/mL
same,IC50,[10],0.15 µg/mL
same,IC90,[10],>16 µg/mL
same,IC50,[11],0.2 µg/mL
same,IC90,[11],>16 µg/mL
same,IC50,[12],0.24 µg/mL
same,IC90,[12],6.84 µg/mL
same,IC50,[13],0.11 µg/mL
same,IC90,[13],0.43 µg/mL
same,IC50,[14],0.13 µg/mL
same,IC90,[14],>16 µg/mL
same,IC50,[15],0.43 µg/mL
same,IC90,[15],>16 µg/mL
same,IC50,[16],0.18 µg/mL
same,IC90,[16],>16 µg/mL
same,IC50,[17],0.26 µg/mL
same,IC90,[17],>16 µg/mL
same,IC50,[18],0.32 µg/mL
same,IC90,[18],>16 µg/mL
same,IC50,[19],0.41 µg/mL
same,IC90,[19],>16 µg/mL
same,IC50,[20],0.24 µg/mL
same,IC90,[20],1.13 µg/mL
same,"anti-K562/adr, anti-NB4, anti-Kasumi-1 and anti-H9 activity",[21],strong
same,"anti-A549, anti-PANC-1, anti-Becap37, anti-MG63, anti-Huh7, anti-RKO, anti-Hela, anti-CaES-17, anti-CNE, anti-Hep-2, anti-PC-3 and anti-SK-OV-3 effect",[22],strong
COC1=C[C@]23CCCN2CCc2cc4c(cc2[C@@H]3[C@@H]1OC(=O)[C@@](O)(CCCC(C)(C)O)CC(=O)N1CCC(N(C)C)CC1)OCO4 [BS-HH-050],IC50,"[1]; Homo sapiens, read-out: IC50",0.13 µg/mL
same,IC90,"[1]; Homo sapiens, read-out: IC90",0.35 µg/mL
same,IC50,"[2]; Homo sapiens, read-out: IC50",0.12 µg/mL
same,IC90,"[2]; Homo sapiens, read-out: IC90",16 µg/mL
same,IC50,"[3]; Homo sapiens, K562/Adr, read-out: IC50",0.72 µg/mL
same,IC90,"[3]; Homo sapiens, K562/Adr, read-out: IC90",8.99 µg/mL
same,IC50,"[4]; Homo sapiens, read-out: IC50",0.041 µg/mL
same,IC90,"[4]; Homo sapiens, read-out: IC90",0.18 µg/mL
same,IC50,"[5]; Homo sapiens, read-out: IC50",0.08 µg/mL
same,IC90,"[5]; Homo sapiens, read-out: IC90",0.17 µg/mL
same,IC50,"[6]; Homo sapiens, RPMI-8226, read-out: IC50",0.1 µg/mL
same,IC90,"[6]; Homo sapiens, RPMI-8226, read-out: IC90",0.38 µg/mL
same,IC50,"[7]; Homo sapiens, read-out: IC50",0.7 µg/mL
same,IC90,"[7]; Homo sapiens, read-out: IC90",> 16 µg/mL
same,IC50,"[8]; Homo sapiens, read-out: IC50",0.26 µg/mL
same,IC90,"[8]; Homo sapiens, read-out: IC90",16 µg/mL
same,IC50,"[9]; Homo sapiens, HeLa, read-out: IC50",0.46 µg/mL
same,IC90,"[9]; Homo sapiens, HeLa, read-out: IC90",> 16 µg/mL
same,IC50,"[10]; Homo sapiens, HEp-2, read-out: IC50",0.31 µg/mL
same,IC90,"[10]; Homo sapiens, HEp-2, read-out: IC90",> 16 µg/mL
same,IC50,"[11]; Homo sapiens, Huh-7, read-out: IC50",0.1 µg/mL
same,IC90,"[11]; Homo sapiens, Huh-7, read-out: IC90",16 µg/mL
same,IC50,"[12]; Homo sapiens, read-out: IC50",0.18 µg/mL
same,IC90,"[12]; Homo sapiens, read-out: IC90",0.48 µg/mL
same,IC50,"[13]; Homo sapiens, read-out: IC50",0.053 µg/mL
same,IC90,"[13]; Homo sapiens, read-out: IC90",0.23 µg/mL
same,IC50,"[14]; Homo sapiens, read-out: IC50",0.15 µg/mL
same,IC90,"[14]; Homo sapiens, read-out: IC90",> 16 µg/mL
same,IC50,"[15]; Homo sapiens, CaEs17, read-out: IC50",0.46 µg/mL
same,IC90,"[15]; Homo sapiens, CaEs17, read-out: IC90",16 µg/mL
same,IC50,"[16]; Homo sapiens, read-out: IC50",0.19 µg/mL
same,IC90,"[16]; Homo sapiens, read-out: IC90",7.22 µg/mL
same,IC50,"[17]; Homo sapiens, read-out: IC50",0.23 µg/mL
same,IC90,"[17]; Homo sapiens, read-out: IC90",> 16 µg/mL
same,IC50,"[18]; Homo sapiens, read-out: IC50",0.45 µg/mL
same,IC90,"[18]; Homo sapiens, read-out: IC90",> 16 µg/mL
same,IC50,"[19]; Homo sapiens, read-out: IC50",0.57 µg/mL
same,IC90,"[19]; Homo sapiens, read-out: IC90",> 16 µg/mL
same,IC50,"[20]; Homo sapiens, U-87 MG, read-out: IC50",0.24 µg/mL
same,IC90,"[20]; Homo sapiens, U-87 MG, read-out: IC90",1.06 µg/mL
same,"anti-K562/adr, anti-NB4, anti-Kasumi-1 and anti-H9 activity",[21],strong
same,"anti-A549, anti-PANC-1, anti-Becap37, anti-MG63, anti-Huh7, anti-RKO, anti-Hela, anti-CaES-17, anti-CNE, anti-Hep-2, anti-PC-3 and anti-SK-OV-3 effect",[22],strong
